Measurements as given in patent US3976788A (priority 1974, dated 1976).
Entries after “also recorded” stand apart in the source; their conditions may differ. Like-named read-outs stand apart in the source and are kept apart here.

Assays:
male CF-1 mice [1] = test: Convulsions in mice, 5 min inhalation exposure to test compound in air; format: in vivo, mouse (male CF-1); conditions: for ADDITIONAL REMARKS: type of convulsions and other effects: Table 1; for MOUSE CONVULSANT CONC., VOL. %: inhalation, 5 min
Protocol: (§1) If anesthesia occurred, the median anesthetic concentration (AC50) was established. Another thirty mice were treated similarly to establish the median lethal concentration (LC50). The concentrations were calculated from the volume used and density of the test compound and the volume of air (6.3 l) in the test jar using the ideal gas law. The results for the convulsant ethers are given in Table 1; Tables 2 and 3 contain the results for related nonconvulsant ethers, most of which are good anesthetic agents.

male CF-1 mice [2] = test: Lethality in mice (median lethal concentration LC50); format: in vivo, mouse (male CF-1); conditions: for MOUSE LC50: inhalation, 5 min
Protocol: as §1

Stability to heat = format: physicochemical
Protocol: which can be treated with about a 0.4 molar equivalent of bromine trifluoride at -5° C to give the ether V (See Examples 8 and 9).

dogs = test: Convulsions / other effects in dogs; format: in vivo, dog
male CF-1 mice [3] = test: Anesthesia in mice (median anesthetic concentration AC50); format: in vivo, mouse (male CF-1); conditions: inhalation, 5 min
Protocol: as §1

male CF-1 mice [4] = conditions: footnote 5 (Krantz et al.); cited from earlier work
male CF-1 mice [5] = conditions: footnote 5 (Krantz et al.); cited from earlier work; remark: listed apart in the source
[6] = footnote 3 (Aldrich and Sheppard); cited from earlier work
[7] = tested on: flurothyl induced convulsions; conditions: footnote 5 (Krantz et al.); cited from earlier work

Row | Compound | MOUSE LC50 (male CF-1 mice [2]) [VOL. %] | MOUSE AC50 (median anesthetic concentration) (male CF-1 mice [3]) [VOL. %] | also measured
1 | FC(F)OCC(F)(F)C(F)F [I, Difluoromethyl 2,2,3,3-tetrafluoropropyl ether] | 3.2 | – | ADDITIONAL REMARKS: type of convulsions and other effects (male CF-1 mice [1]): CLONIC CONVULSIONS; MOUSE CONVULSANT CONC., VOL. % (male CF-1 mice [1]): 1.0 VOL. %; stability to heat compared with V (Stability to heat): more stable than V to heat
2 | FC(F)OCC(F)(F)C(F)(F)F [II, Difluoromethyl 2,2,3,3,3-pentafluoropropyl ether] | > 4.2 | – | ADDITIONAL REMARKS: type of convulsions and other effects (male CF-1 mice [1]): CLONIC AND TONIC CONVULSIONS; also recorded: CATALEPSY; MOUSE CONVULSANT CONC., VOL. % (male CF-1 mice [1]): 1.4 VOL. %; stability to heat compared with V (Stability to heat): more stable than V to heat
3 | FC(F)OC(F)(F)C(F)C(F)(F)F (stereo not shown) [III, Difluoromethyl 1,1,2,3,3,3-hexafluoropropyl ether] | > 12 | – | MOUSE CONVULSANT CONC., VOL. % (male CF-1 mice [1]): 2.0 VOL. %; stability to heat compared with V (Stability to heat): more stable than V to heat
4 | FC(F)OC(F)(C(F)F)C(F)F [IV, Difluromethyl 1,1,2,3,3-pentafluoro-2-propyl ether] | 5.3 | – | ADDITIONAL REMARKS: type of convulsions and other effects (male CF-1 mice [1]): C[…] SEDATION; MOUSE CONVULSANT CONC., VOL. % (male CF-1 mice [1]): 1.2 VOL. %; stability to heat compared with V (Stability to heat): more stable than V to heat; ADDITIONAL REMARKS: convulsions in dogs (dogs): OPI[…]. IN DOGS
5 | FC(F)OC(F)C(F)(F)C(F)(F)F (stereo not shown) [IX] | > 9.9 | 4.3 | –
6 | FCOCC(F)(F)C(F)(F)F [V, Fluoromethyl 2,2,3,3,3-pentafluoropropyl ether] | > 3.0 | – | ADDITIONAL REMARKS: type of convulsions and other effects (male CF-1 mice [1]): METRAZOLE-LIKE CONVULSIONS; MOUSE CONVULSANT CONC., VOL. % (male CF-1 mice [1]): 1.5 VOL. %; stability to heat in the presence of an alkaline material (Stability to heat; e.g., soda lime): stable to 70 °C; stability to heat (Stability to heat; upon distillation at 760 torr): unstable to heat and decomposed with the formation of hydrogen fluoride
7 | FC(F)(F)COCC(F)(F)F [VII, fluorothyl] | – | – | ADDITIONAL REMARKS: type of convulsions and other effects (male CF-1 mice [1]): CLONIC AND TONIC CONVULSIONS; ADDITIONAL REMARKS: time of convulsions (male CF-1 mice [1]; clonic and tonic convulsions): 30 s; MOUSE CONVULSANT CONC., VOL. % (male CF-1 mice [4]): ≤ 0.25 VOL. %; MOUSE LC50 (male CF-1 mice [5]): < 0.50 VOL. %
8 | FC(F)C(F)(F)COC(F)(F)F [VI] | ≤ 0.5 | – | MOUSE CONVULSANT CONC., VOL. % (male CF-1 mice [1]): ≤ 0.5 VOL. %; ADDITIONAL REMARKS: convulsions and death [6]: VIOLENT C[…] DEATH; ADDITIONAL REMARKS: time of convulsions and death [6]: 30 to 120 s
9 | FCOC(F)(F)C(F)C(F)(F)F (stereo not shown) [XIII] | 6.4 | 2.1 | –
10 | FC(F)OC(C(F)F)C(F)F [XII] | 3.8 | 0.64 | –
11 | FCOC(F)(C(F)F)C(F)(F)F (stereo not shown) [XIV] | 9.0 | 2.5 | ADDITIONAL REMARKS: convulsions in dogs (dogs): NON[…] DOGS
12 | COCC(F)(F)C(F)(F)F [XIX, methyl 2,2,3,3,3-pentafluoropropyl ether] | 16 | 11 | –
13 | FC(F)OC(C(F)F)C(F)(F)F (stereo not shown) [XI] | 4.9 | 0.84 | –
14 | COC(F)(F)C(F)C(F)(F)F (stereo not shown) [XVIII, methyl 1,1,2,3,3,3-hexafluoropropyl ether] | > 8.0 | 3.9 | –
15 | COC(F)(F)C(F)(F)C(F)(F)F [XVII] | 50 | – | ADDITIONAL REMARKS: cause of death (male CF-1 mice [2]; mouse): DEATH DUE TO ANOXIA
16 | FCOC(C(F)F)C(F)(F)F (stereo not shown) [XVI] | 5.1 | 0.84 | –
17 | FCOC(C(F)(F)F)C(F)(F)F [XV] | 8.5 | 1.4 | ADDITIONAL REMARKS: convulsions in dogs (dogs): NON[…] DOGS
18 | COC(C(F)F)C(F)F [XXIII] | > 7.8 | 1.4 | –
19 | COC(C(F)F)C(F)(F)F (stereo not shown) [XXII] | 6.9 | 1.5 | –
20 | COC(C(F)(F)F)C(F)(F)F [XXI] | 9.0 | 2.2 | antagonist to flurothyl (induced convulsions) [7]: ANTAGONIST; ADDITIONAL REMARKS: convulsions in dogs (dogs): NON[…] DOGS
21 | COCC(F)(F)C(F)F [XX] | 7.0 | 2.5 | –
22 | FC(F)OC(C(F)(F)F)C(F)(F)F [X] | 12 | 2.5 | ADDITIONAL REMARKS: convulsions in dogs (dogs): NON[…] DOGS
